Measured values from patent publication US10723695B2, “Microbiocidal phenylamidine derivatives” (SYNGENTA PARTICIPATIONS AG, priority 2015, dated 2020).

How the values were obtained:
[1] = test system: Puccinia recondita f. sp. tritici; test: Puccinia recondita f. sp. tritici / wheat / leaf disc curative (brown rust); assay type: in vivo; conditions: foliar, 24 h, wheat leaf segments cv. Kanzler, curative (applied 1 day after inoculation), compared to untreated control leaf disks, read-out: disease control
Method: Puccinia recondita f. sp. tritici/Wheat/Leaf Disc Curative (Brown Rust) Wheat leaf segments cv. Kanzler are placed on agar in multiwell plates (24-well format). The leaf segments are inoculated with a spore suspension of the fungus. Plates were stored in darkness at 19° C. and 75% rh. The formulated test compound diluted in water was applied 1 day after inoculation.

[2] = test system: Phakopsora pachyrhizi; test: Phakopsora pachyrhizi / soybean / leaf disk preventative (soybean rust); assay type: in vivo; conditions: foliar, soybean leaf disks, compared to untreated control leaf disks, read-out: disease control
Method: Phakopsora pachyrhizi/Soybean/Leaf Disk Preventative (Soybean Rust) Four-week old soybean plants are sprayed in a spray chamber with the formulated test compound diluted in water. Leaf disks are cut from treated plants and placed on agar into 24-well plates one day after application. Leaf disks are inoculated by spraying them with a spore suspension on their lower leaf surface. After an incubation period in a climate cabinet of 24-36 hours in darkness at 20° C. and 75% rh, the leaf disks are then kept at 20° C. with 12 h light/day and 75% rh. The percentage leaf disk area covered by disease is assessed when an appropriate level of disease appears on untreated check plants (12-14 days after application).

[3] = test system: Puccinia recondita f. sp. tritici; test: Puccinia recondita f. sp. tritici / wheat / leaf disc preventative (brown rust); assay type: in vivo; conditions: foliar, wheat leaf segments cv. Kanzler, compared to untreated control leaf disks, read-out: disease control
Method: Puccinia recondita f. sp. tritici/Wheat/Leaf Disc Preventative (Brown Rust) Wheat leaf segments cv. Kanzler were placed on agar in multiwell plates (24-well format) and sprayed with the formulated test compound diluted in water. The leaf disks were inoculated with a spore suspension of the fungus 1 day after application. The inoculated leaf segments were incubated at 19° C. and 75% rh under a light regime of 12 h light/12 h darkness in a climate cabinet and the activity of a compound was assessed as percent disease control compared to untreated when an appropriate level of disease damage appears in untreated check leaf segments (7-9 days after application).

[4] = test system: Blumeria graminis f. sp. tritici (Erysiphe graminis f. sp. tritici); test: Blumeria graminis f. sp. tritici / wheat / leaf disc preventative (powdery mildew on wheat); assay type: in vivo; conditions: foliar, wheat leaf segments cv. Kanzler, compared to untreated control leaf disks, read-out: disease control
Text: Blumeria graminis f. sp. tritici (Erysiphe graminis f. sp. tritici)/Wheat/Leaf Disc Preventative (Powdery Mildew on Wheat) Wheat leaf segments cv. Kanzler were placed on agar in a multiwell plate (24-well format) and sprayed with the formulated test compound diluted in water. The leaf disks were inoculated by shaking powdery mildew infected plants above the test plates 1 day after application.

Compound | melting point [°C] | pest or weed control at 200 ppm [1] [%] | pest or weed control at 200 ppm [2] [%] | pest or weed control at 200 ppm [3] [%] | pest or weed control at 200 ppm [4] [%]
CCN(C)/C=N/c1cc(OC)c(C(O)(c2ccccc2)C(F)(F)F)cc1F (stereo not drawn) [Compound E1.153] | 144 to 146 |  |  |  | 
CCN(C)/C=N/c1cc(OC)c(C(O)(c2cccnc2F)C(F)(F)F)cc1C (stereo not drawn) [Compound E1.157] | 113 to 115 |  |  |  | 
CCN(/C=N/c1cc(OC)c(C(O)(C(C)C)C(F)(F)F)cc1C)CC (stereo not drawn) [Compound E1.133] | 60 to 62 |  |  |  | 
COc1cc(/N=C/N2CCCC2)c(C)cc1C(O)(c1ccccc1)C(F)(F)F (stereo not drawn) [Compound E1.135] | 157 to 159 |  |  |  | 
COc1cc(/N=C/N2CCCC2)c(C)cc1C(O)(C(C)C)C(F)(F)F (stereo not drawn) [Compound E1.135] | 102 to 104 |  |  |  | 
CCN(C)/C=N/c1cc(OC)c(C(O)(C(C)C)C(F)(F)Cl)cc1C (stereo not drawn) [Compound E1.119] |  | ≥ 80 | ≥ 80 | ≥ 80 | ≥ 80
CCN(C)/C=N/c1cc(OC)c([C@@](O)(c2ccccc2)C(F)(F)F)cc1C [Compound E1.015] |  | ≥ 80 | ≥ 80 | ≥ 80 | ≥ 80
CCN(C)/C=N/c1cc(OC)c(C(O)(c2ccccc2OC)C(F)(F)F)cc1C (stereo not drawn) [Compound E1.030] |  | ≥ 80 | ≥ 80 | ≥ 80 | ≥ 80
CCN(C)/C=N/c1cc(OC)c(C(O)(Cn2ncc3ccccc32)C(F)(F)F)cc1C (stereo not drawn) [Compound E1.093] |  | ≥ 80 | ≥ 80 | ≥ 80 | ≥ 80
CCN(C)/C=N/c1cc(OC)c(C(O)(C2CCCC2)C(F)(F)F)cc1C (stereo not drawn) [Compound E1.050] |  | ≥ 80 | ≥ 80 | ≥ 80 | ≥ 80
CCCCC(O)(c1cc(C)c(/N=C/N(C)C2CC2)cc1OC)C(F)(F)F (stereo not drawn) [Compound E1.049] |  | ≥ 80 | ≥ 80 | ≥ 80 | ≥ 80

Further lines, with some results ahead:

melting point [°C] | Compound | pest or weed control at 200 ppm [1] [%] | pest or weed control at 200 ppm [2] [%] | pest or weed control at 200 ppm [3] [%] | pest or weed control at 200 ppm [4] [%]
112 to 115 | COc1cc(/N=C/N(C)C(C)C)c(C)cc1C(O)(c1cc(F)ccc1F)C(F)(F)F (stereo not drawn) [Compound E1.135] |  |  |  | 
133 to 135 | COc1cc(/N=C/N(C)C)c(C)cc1C(O)(c1ccccc1)C(F)(F)F (stereo not drawn) [Compound E1.137] |  |  |  | 
116 to 118 | COc1cc(/N=C/N(C)C(C)C)c(C)cc1C(O)(c1ccc(F)c(F)c1)C(F)(F)F (stereo not drawn) [Compound E1.127] |  |  |  | 
92 to 94 | COc1cc(/N=C/N(C)C(C)C)c(C)cc1C(O)(c1cccc(F)c1)C(F)(F)F (stereo not drawn) [Compound E1.152] |  |  |  | 
67 to 69 | COc1cc(/N=C/N(C)C(C)C)c(C)cc1C(O)(c1ccccc1Cl)C(F)(F)F (stereo not drawn) [Compound E1.151] |  |  |  | 
128 to 130 | CCN(C)/C=N/c1cc(OC)c(C(O)(c2c(F)cccc2F)C(F)(F)F)cc1C (stereo not drawn) [Compound E1.147] |  |  |  | 
127 to 129 | COc1cc(/N=C/N(C)C(C)C)c(C)cc1C(O)(c1cccc(F)c1C)C(F)(F)F (stereo not drawn) [Compound E1.131] |  |  |  | 
97 to 99 | COc1cc(/N=C/N(C)C(C)C)c(C)cc1C(O)(c1cccc(F)c1F)C(F)(F)F (stereo not drawn) [Compound E1.144] |  |  |  | 
138 to 140 | COc1cc(/N=C/N(C)C(C)C)c(C)cc1C(O)(c1ccccc1C)C(F)(F)F (stereo not drawn) [Compound E1.148] |  |  |  | 
102 to 104 | CCN(/C=N/c1cc(OC)c(C(O)(c2ccccc2)C(F)(F)F)cc1C)CC (stereo not drawn) [Compound E1.139] |  |  |  | 
